Assay results from article PMC8959664, “Elucidating Therapeutic and Biological Potential of Berberis baluchistanica Ahrendt Bark, Leaf, and Root Extracts” (Frontiers in Microbiology, 2022).

System: T1, trypsin
T1 construct: gene PRSS1; commercial-type enzyme; bovine is only a guess (porcine equally possible)
Assay: casein digestion, perchloric acid precipitation, absorbance […] nm
Assay type: biochemical
Conditions: casein 0.8% substrate, Tris-HCl pH 7.4, 37°C, 5 min preincubation

In the case of `CC(=O)Oc1ccccc1C(=O)O` [aspirin], the “Protein inhibition denaturation IC50” value is reported as 430 ± 100 µg/mL.
